Measured values from ChEMBL document CHEMBL4616581, “Current scenario of artemisinin and its analogues for antimalarial activity” (Eur J Med Chem, 2019).
Values after ≈ are worked out from the molar mass of the structure shown.

Experiments:
Assay type in all cases: functional, organism-based
Plasmodium falciparum [1] = assay: Antimalarial activity against Plasmodium falciparum NF54 after 48 hrs by spectrophotometric analysis; details: NF54, 48 h
Plasmodium falciparum [2] = assay: Antimalarial activity against Plasmodium falciparum K1 by [3H]-hypoxanthine incorporation assay
Plasmodium falciparum [3] = assay: Antimalarial activity against Plasmodium falciparum D6 after 24 hrs by in presence of [3H]hypoxanthine
Plasmodium falciparum [4] = assay: Antimalarial activity against Plasmodium falciparum W2 after 24 hrs by in presence of [3H]hypoxanthine
Plasmodium falciparum [5] = assay: Antimalarial activity against Plasmodium falciparum D6
Plasmodium falciparum [6] = assay: Antimalarial activity against Plasmodium falciparum W2
Plasmodium falciparum [7] = assay: Antimalarial activity against blood stages of chloroquine-resistant Plasmodium falciparum K1
Plasmodium falciparum [8] = assay: Antimalarial activity against Plasmodium falciparum K1
Plasmodium falciparum [9] = assay: Antimalarial activity against Plasmodium falciparum HB3

C[C@@H]1CC[C@H]2[C@@H](C)C(OC(=O)c3ccc([N+](=O)[O-])cc3)O[C@@H]3O[C@]4(C)CC[C@@H]1[C@]32OO4 (some centres not stated)
IC50 (Plasmodium falciparum [1]): 8.54 nM

C[C@@H]1CC[C@H]2[C@H](C[C@@]3(CCCCCCC[C@]4(C[C@H]5C(=O)O[C@@H]6O[C@]7(C)CC[C@H]8[C@H](C)CC[C@@H]5[C@@]68OO7)C(=O)O[C@@H]5O[C@]6(C)CC[C@H]7[C@H](C)CC[C@@H]4[C@@]57OO6)C(=O)O[C@@H]4O[C@]5(C)CC[C@H]6[C@H](C)CC[C@@H]3[C@@]46OO5)C(=O)O[C@@H]3O[C@]4(C)CC[C@@H]1[C@]32OO4
EC50 (Plasmodium falciparum [2]): 20 nM

C[C@H]1[C@@H](O[C@H](C)CC(=O)O)O[C@@H]2O[C@]3(C)CC[C@H]4[C@H](C)CC[C@@H]1[C@@]24OO3
IC50 (Plasmodium falciparum [3]): 36.5 ng/mL
IC50 (Plasmodium falciparum [4]): 4.42 ng/mL

C[C@@H]1CC[C@H]2[C@@H](C)C(OC(=O)c3cccc([N+](=O)[O-])c3)O[C@@H]3O[C@]4(C)CC[C@@H]1[C@]32OO4 (some centres not stated)
IC50 (Plasmodium falciparum [1]): 10.6 nM

C[C@@H]1CC[C@H]2[C@](C)(Br)[C@@H](Nc3nccs3)O[C@@H]3O[C@]4(C)CC[C@@H]1[C@]32OO4
IC50 (Plasmodium falciparum [5]): 0.91 ng/mL (≈ 2.04 nM)
IC50 (Plasmodium falciparum [6]): 0.21 ng/mL

C[C@@H]1CC[C@H]2[C@](C)(Br)[C@@H](Nc3ncccn3)O[C@@H]3O[C@]4(C)CC[C@@H]1[C@]32OO4
IC50 (Plasmodium falciparum [5]): 26 ng/mL (≈ 59 nM)
IC50 (Plasmodium falciparum [6]): 5.56 ng/mL

CCC[C@H]1O[C@@H]2O[C@]3(C)CC[C@H]4[C@H](C)CC[C@@H]([C@H]1C)[C@@]24OO3
IC50 (Plasmodium falciparum [5]): 0.41 ng/mL (≈ 1.32 nM)
IC50 (Plasmodium falciparum [6]): 0.16 ng/mL

C[C@@H]1CC[C@@H]2[C@]34OO[C@@](C)(CC[C@@H]13)O[C@H]4OC(O/C=C/c1ccccc1)[C@]2(C)O (some centres not stated)
IC50 (Plasmodium falciparum [1]): 106 nM

COC(=O)CC[C@@H](OC1O[C@@H]2O[C@]3(C)CC[C@H]4[C@H](C)CC[C@@H]([C@H]1C)[C@@]24OO3)c1ccc(F)cc1 (some centres not stated)
IC50 (Plasmodium falciparum [5]): 0.43 ng/mL (≈ 0.9 nM)
IC50 (Plasmodium falciparum [6]): 0.398 ng/mL

C[C@@H]1CC[C@@H]2[C@]34OO[C@@](C)(CC[C@@H]13)O[C@H]4OC(OCc1ccc3c(c1)OCO3)[C@]2(C)O (some centres not stated)
IC50 (Plasmodium falciparum [1]): 110 nM

C[C@@H]1CC[C@H]2[C@](C)(Br)[C@@H](Nc3ccccn3)O[C@@H]3O[C@]4(C)CC[C@@H]1[C@]32OO4
IC50 (Plasmodium falciparum [5]): 7.72 ng/mL (≈ 17.6 nM)
IC50 (Plasmodium falciparum [6]): 1.19 ng/mL

CC[C@H]1O[C@@H]2O[C@]3(C)CC[C@H]4[C@H](C)CC[C@@H]([C@H]1C)[C@@]24OO3
IC50 (Plasmodium falciparum [5]): 1.09 ng/mL (≈ 3.68 nM)
IC50 (Plasmodium falciparum [6]): 0.29 ng/mL

C[C@H]1[C@@H](OCc2ccc(C(=O)O)cc2)O[C@@H]2C[C@]3(C)CC[C@H]4[C@H](C)CC[C@@H]1[C@@]24OO3
IC50 (Plasmodium falciparum [7]): 1.38 ng/mL

C[C@H]1[C@@H](OC[C@H](C)C(=O)O)O[C@@H]2O[C@]3(C)CC[C@H]4[C@H](C)CC[C@@H]1[C@@]24OO3
IC50 (Plasmodium falciparum [3]): 28.7 ng/mL
IC50 (Plasmodium falciparum [4]): 8.33 ng/mL

CNCCO[C@H]1O[C@@H]2O[C@]3(C)CC[C@H]4[C@H](C)CC[C@@H]([C@H]1C)[C@@]24OO3
IC50 (Plasmodium falciparum [8]): 24 nM
IC50 (Plasmodium falciparum [9]): 27 nM

C[C@@H]1CC[C@H]2[C@@H](C)C(CCCO)O[C@@H]3O[C@]4(C)CC[C@@H]1[C@]32OO4 (some centres not stated)
IC50 (Plasmodium falciparum [5]): 0.23 ng/mL (≈ 0.705 nM)
IC50 (Plasmodium falciparum [6]): 0.23 ng/mL

COC(=O)CC[C@@H](OC1O[C@@H]2O[C@]3(C)CC[C@H]4[C@H](C)CC[C@@H]([C@H]1C)[C@@]24OO3)c1ccc(Cl)cc1 (some centres not stated)
IC50 (Plasmodium falciparum [5]): 0.727 ng/mL (≈ 1.47 nM)
IC50 (Plasmodium falciparum [6]): 0.629 ng/mL

C[C@@H]1CC[C@H]2[C@@H](C)C(OC(=O)c3cccc4c3OCO4)O[C@@H]3O[C@]4(C)CC[C@@H]1[C@]32OO4 (some centres not stated)
IC50 (Plasmodium falciparum [1]): 8.08 nM

C[C@H]1[C@@H](C(F)(F)F)O[C@@H]2O[C@]3(C)CC[C@H]4[C@H](C)CC[C@@H]1[C@@]24OO3
IC50 (Plasmodium falciparum [6]): 6.2 nM

CCO[C@H]1O[C@@H]2C[C@]3(C)CC[C@H]4[C@H](C)CC[C@@H]([C@H]1C)[C@@]24OO3
IC50 (Plasmodium falciparum [7]): 12.8 nM

C[C@H]1[C@@H](OC2O[C@H](CO)[C@H](O)[C@H](O)[C@H]2O)O[C@@H]2O[C@]3(C)CC[C@H]4[C@H](C)CC[C@@H]1[C@@]24OO3 (some centres not stated)
IC50 (Plasmodium falciparum [3]): 13.1 ng/mL
IC50 (Plasmodium falciparum [4]): 35.6 ng/mL

COC(=O)CC[C@H](OC1O[C@@H]2O[C@]3(C)CC[C@H]4[C@H](C)CC[C@@H]([C@H]1C)[C@@]24OO3)c1ccc(Cl)cc1 (some centres not stated)
IC50 (Plasmodium falciparum [5]): 0.903 ng/mL (≈ 1.82 nM)
IC50 (Plasmodium falciparum [6]): 0.794 ng/mL

C[C@H]1[C@@H](O[C@@H]2O[C@H](CO)[C@@H](O[C@@H]3O[C@H](CO)[C@@H](O)[C@H](O)[C@H]3O)[C@H](O)[C@H]2O)O[C@@H]2O[C@]3(C)CC[C@H]4[C@H](C)CC[C@@H]1[C@@]24OO3
IC50 (Plasmodium falciparum [3]): 710 ng/mL
IC50 (Plasmodium falciparum [4]): 171 ng/mL

C[C@H]1[C@@H](OC[C@@H](C)C(=O)O)O[C@@H]2O[C@]3(C)CC[C@H]4[C@H](C)CC[C@@H]1[C@@]24OO3
IC50 (Plasmodium falciparum [3]): 22.2 ng/mL
IC50 (Plasmodium falciparum [4]): 5.34 ng/mL

C[C@H]1[C@@H](O[C@@H](C)CC(=O)O)O[C@@H]2O[C@]3(C)CC[C@H]4[C@H](C)CC[C@@H]1[C@@]24OO3
IC50 (Plasmodium falciparum [3]): 15 ng/mL
IC50 (Plasmodium falciparum [4]): 7.43 ng/mL

CCNCCO[C@H]1O[C@@H]2O[C@]3(C)CC[C@H]4[C@H](C)CC[C@@H]([C@H]1C)[C@@]24OO3
IC50 (Plasmodium falciparum [8]): 4.1 nM
IC50 (Plasmodium falciparum [9]): 4.1 nM

CO[C@H]1O[C@@H]2C[C@]3(C)CC[C@H]4[C@H](C)CC[C@@H]([C@H]1C)[C@@]24OO3
IC50 (Plasmodium falciparum [7]): 0.301 ng/mL

COC(=O)CCC(OC1O[C@@H]2O[C@]3(C)CC[C@H]4[C@H](C)CC[C@@H]([C@H]1C)[C@@]24OO3)c1ccc(Cl)cc1 (some centres not stated)
IC50 (Plasmodium falciparum [5]): 0.391 ng/mL (≈ 0.79 nM)
IC50 (Plasmodium falciparum [6]): 0.656 ng/mL

COc1ccc(OC)c(COC2O[C@@H]3O[C@]4(C)CC[C@H]5[C@H](C)CC[C@H]([C@@]35OO4)[C@@]2(C)O)c1 (some centres not stated)
IC50 (Plasmodium falciparum [1]): 125 nM

C[C@H]1[C@@H](OCc2ccc(CO)cc2)O[C@@H]2O[C@]3(C)CC[C@H]4[C@H](C)CC[C@@H]1[C@@]24OO3
IC50 (Plasmodium falciparum [8]): 4.4 nM
IC50 (Plasmodium falciparum [9]): 4.2 nM

C[C@H]1[C@@H](OCCN2CCCC2)O[C@@H]2O[C@]3(C)CC[C@H]4[C@H](C)CC[C@@H]1[C@@]24OO3
IC50 (Plasmodium falciparum [8]): 23 nM
IC50 (Plasmodium falciparum [9]): 23 nM

COC(=O)C[C@@H](C)O[C@H]1O[C@@H]2O[C@]3(C)CC[C@H]4[C@H](C)CC[C@@H]([C@H]1C)[C@@]24OO3
IC50 (Plasmodium falciparum [3]): 0.44 ng/mL
IC50 (Plasmodium falciparum [4]): 0.071 ng/mL

COC(=O)[C@H](C)CO[C@H]1O[C@@H]2O[C@]3(C)CC[C@H]4[C@H](C)CC[C@@H]([C@H]1C)[C@@]24OO3
IC50 (Plasmodium falciparum [3]): 2.15 ng/mL
IC50 (Plasmodium falciparum [4]): 0.057 ng/mL

C[C@H]1[C@@H](OCc2ccc(CN3CCCCC3)cc2)O[C@@H]2O[C@]3(C)CC[C@H]4[C@H](C)CC[C@@H]1[C@@]24OO3
IC50 (Plasmodium falciparum [8]): 9.8 nM
IC50 (Plasmodium falciparum [9]): 12.2 nM

C[C@H]1[C@@H](OCc2ccc(CN)cc2)O[C@@H]2O[C@]3(C)CC[C@H]4[C@H](C)CC[C@@H]1[C@@]24OO3
IC50 (Plasmodium falciparum [8]): 1.4 nM
IC50 (Plasmodium falciparum [9]): 3.1 nM

COC(=O)CC[C@H](OC1O[C@@H]2O[C@]3(C)CC[C@H]4[C@H](C)CC[C@@H]([C@H]1C)[C@@]24OO3)c1ccc(F)cc1 (some centres not stated)
IC50 (Plasmodium falciparum [5]): 0.616 ng/mL (≈ 1.29 nM)
IC50 (Plasmodium falciparum [6]): 0.488 ng/mL

C[C@@H]1CC[C@@H]2[C@]34OO[C@@](C)(CC[C@@H]13)O[C@H]4OC(OCC1CC1)[C@]2(C)O (some centres not stated)
IC50 (Plasmodium falciparum [1]): 158 nM

C[C@@H]1CC[C@H]2[C@](C)(Br)[C@@H](Nc3cccc(F)c3)O[C@@H]3O[C@]4(C)CC[C@@H]1[C@]32OO4
IC50 (Plasmodium falciparum [5]): 0.16 ng/mL (≈ 0.351 nM)
IC50 (Plasmodium falciparum [6]): < 0.16 ng/mL

C[C@H]1[C@@H](CCO)O[C@@H]2O[C@]3(C)CC[C@H]4[C@H](C)CC[C@@H]1[C@@]24OO3
IC50 (Plasmodium falciparum [5]): 0.34 ng/mL (≈ 1.09 nM)
IC50 (Plasmodium falciparum [6]): 0.18 ng/mL

C[C@H]1[C@@H](OCc2ccc(CN3CCOCC3)cc2)O[C@@H]2O[C@]3(C)CC[C@H]4[C@H](C)CC[C@@H]1[C@@]24OO3
IC50 (Plasmodium falciparum [8]): 35 nM
IC50 (Plasmodium falciparum [9]): 50 nM

COC(=O)C[C@H](C)O[C@H]1O[C@@H]2O[C@]3(C)CC[C@H]4[C@H](C)CC[C@@H]([C@H]1C)[C@@]24OO3
IC50 (Plasmodium falciparum [3]): 1.19 ng/mL
IC50 (Plasmodium falciparum [4]): 0.48 ng/mL

C[C@@H]1CC[C@H]2[C@@H](C)C(O)O[C@@H]3C[C@]4(C)CC[C@@H]1[C@]32OO4 (some centres not stated)
IC50 (Plasmodium falciparum [7]): 0.69 ng/mL

COC(=O)[C@@H](C)CO[C@H]1O[C@@H]2O[C@]3(C)CC[C@H]4[C@H](C)CC[C@@H]([C@H]1C)[C@@]24OO3
IC50 (Plasmodium falciparum [3]): 0.36 ng/mL
IC50 (Plasmodium falciparum [4]): 0.015 ng/mL

C[C@H]1[C@@H](OC2O[C@H](CO)[C@@H](O)[C@H](O)[C@H]2O)O[C@@H]2O[C@]3(C)CC[C@H]4[C@H](C)CC[C@@H]1[C@@]24OO3 (some centres not stated)
IC50 (Plasmodium falciparum [3]): 122 ng/mL
IC50 (Plasmodium falciparum [4]): 34.1 ng/mL

C[C@@H]1CC[C@H]2[C@](C)(Br)[C@@H](Nc3ccccc3)O[C@@H]3O[C@]4(C)CC[C@@H]1[C@]32OO4
IC50 (Plasmodium falciparum [5]): 3.42 ng/mL (≈ 7.8 nM)
IC50 (Plasmodium falciparum [6]): 0.63 ng/mL
